Results: US9603836B2, “Pyrrolidine-2, 5-dione derivatives, pharmaceutical compositions and methods for use as IDO1 inhibitors” (ITEOS THERAPEUTICS, priority 2014, dated 2017)

Key:
[1] = system: Kynurenine; assay: In-vivo inhibition of blood kynurenine levels in healthy mice; design: species or system mouse; settings: two hours
Procedure: The compounds of the present invention reduce the amount of Kynurenine in healthy mouse blood.
Briefly, mice were treated with either a suspension of one of the compounds of the present invention in 0.5% hydroxypropyl methylcellulose (HPMC) K4M/0.25% Tween 20 at different doses, or with a vehicle control (0.5% HPMC K4M/0.25% Tween 20), by the oral route by gavage (dosing volume 5 mL/kg, 10 mice per group). After two hours, blood was harvested, plasma was prepared and the amount of Kynurenine present was determined by LC-MS-MS (HPLC column Unison UK-Phenyl, 75×4.6, 3 μm, flow rate 0.8 mL/min, 4 minutes gradient from water+0.2% acetic acid to methanol+0.1% formic acid, retention time 2.7 min; API4000™ MS-MS system from AB Sciex, ESI+ mode, parent ion 209.2, daughter ion 94.1).

[2] = system: PancO2 tumors; assay: In vivo efficacy in PancO2 pancreatic cancer syngeneic model; design: species or system C57/B16 mice; settings: PancO2, 100 mg/kg BID oral
Procedure: In vivo efficacy studies of the Compounds of the present invention were performed on PancO2 syngeneic tumor model of C57/B16 mice implanted subcutaneously. Five millions PancO2 pancreas cancer cells were implanted subcutaneously to 7 weeks old C57/B16 mice (day 0). Animals were randomized based on tumor size when tumor average reached 60 mm^3 (between day 10 and 12) into different treatment cohorts. The Compound was administered orally twice per day (approximately at 9 am and 5 pm) starting the day of randomization. The Compound was suspended into Methocel vehicle and sonicated before oral administration to animals using gavage needles. Treatment was administered daily until the end of the study. All experimental animals were monitored for body weight changes weekly. Tumor volume was measured weekly using a caliper device and calculated with the following formula: Tumor volume=0.5×(length×width^2). Studies were terminated before tumor volumes reached 2000 mm. TGI (% tumor growth inhibition) was determined as
Treatment was administered daily until the end of the study. Tumor volume was measured weekly using a caliper device and calculated with the following formula: Tumor volume=0.5×(length×width^2). Mice were considered as dead when tumor size reached 400 mm^3. […] SEM refers to standard error of measurement.

[3] = target: T1, hIDO1 (Homo sapiens (Human), UniProt P14902); assay: Assay for IDO1 enzymatic activity determination; type: biochemical; settings: human recombinant IDO1 enzyme, L-Trp 100 μM
Procedure: To measure enzymatic activity of human IDO1, the reaction mixture contained (final concentrations) potassium phosphate buffer (50 mM, pH 6.5), ascorbic acid (10 mM), methylene blue (5 μM) and human recombinant IDO1 enzyme (prepared as described in Rohrig et al. J Med Chem, 2012, 55, 5270-5290; final concentration 5 μg/mL) without or with the compounds of the present invention at the indicated concentrations (total volume 112.5 μL). The reaction was initiated by the addition of 37.5 μL of L-Trp (final concentration 100 μM) at room temperature. The reaction was conducted at room temperature during 15 minutes and stopped by the addition of 30 μL of 30% (w/v) trichloroacetic acid.
To convert N-formylkynurenine into kynurenine, the reaction mixture was incubated at 65° C. for 30 min. Then 120 μL of 2.5% (w/v) 4-(dimethylamino)-benzaldehyde in acetic acid were added and the mixture incubated for 5 min at room temperature. Kynurenine concentrations were determined by measuring the absorbance at 480 nm. A standard curve was made with pure kynurenine. The IDO1 activity was measured as described above using ten serial concentrations of the compounds of the present invention. Data were fitted using the Prism software (GraphPad Software, Inc.).

[4] = target: T1, hIDO1; assay: Cellular assay for IDO activity determination: hIDO1 P815 cells; type: cell-based; settings: P815 cells overexpressing hIDO1, 24 hours
Procedure: To determine IDO1 activity, the cells were incubated 24 hours at 37° C. at 5% CO2 in IMDM (Invitrogen) supplemented with 2% FBS and 2% penicillin/streptomycin in the presence of the compounds of the present invention, at different concentrations.
The plates were then centrifuged 5 min at 1000 rpm, and 100 μL of the supernatant were collected in a conical plate, 30 uL of TCA 30% were added and a further centrifugated at 3000×g for 10 minutes. 100 μL of the supernatant were collected in a flat bottomed plate and 100 μL of 2% (w/v) 4-(dimethylamino)-benzaldehyde in acetic acid and incubated for 5 min at room temperature. […] A standard curve was made with pure kynurenine.

[5] = target: T1, hIDO1; assay: Cellular assay for IDO1 activity determination: HeLa cells; type: cell-based; settings: HeLa cells stimulated with IFNγ
Procedure: The assay was performed in 96-well flat bottom plates seeded with the human cervical cancer HeLa cell line with stimulation with IFN.
To adhere HeLa cells (concentration of 5×10^3 cells/well) were incubated overnight at 37° C. at 5% CO2 in EMEM (Lonza) supplemented with 10% FBS, 2% penicillin/streptomycin and 2 mM Ultraglutamin, in a final volume of 200 μL.
To stimulate the expression of IDO1, cells were then incubated two days at 37° C. at 5% CO2 in EMEM (Lonza) supplemented with 2% FBS, 2% penicillin/streptomycin and 2 mM Ultraglutamine and 100 ng/mL IFNγ (R&D).
To determine IDO1 activity, medium was removed then the cells were incubated one day at 37° C. at 5% CO2 in EMEM (Lonza) supplemented with 2% FBS and 2% penicillin/streptomycin in the presence of the compounds of the present invention, at different concentrations. Then 100 μL of the supernatant were collected in a conical plate, 30 uL of TCA 30% were added and a centrifugation was made at 3000×g for 10 minutes. 100 μL of the supernatant were collected in a flat bottom plate and 100 μL of 2% (w/v) 4-(dimethylamino)-benzaldehyde in acetic acid and incubated for 5 min at room temperature. […] A standard curve was made with pure kynurenine.

T1 sequence (P14902 whole entry): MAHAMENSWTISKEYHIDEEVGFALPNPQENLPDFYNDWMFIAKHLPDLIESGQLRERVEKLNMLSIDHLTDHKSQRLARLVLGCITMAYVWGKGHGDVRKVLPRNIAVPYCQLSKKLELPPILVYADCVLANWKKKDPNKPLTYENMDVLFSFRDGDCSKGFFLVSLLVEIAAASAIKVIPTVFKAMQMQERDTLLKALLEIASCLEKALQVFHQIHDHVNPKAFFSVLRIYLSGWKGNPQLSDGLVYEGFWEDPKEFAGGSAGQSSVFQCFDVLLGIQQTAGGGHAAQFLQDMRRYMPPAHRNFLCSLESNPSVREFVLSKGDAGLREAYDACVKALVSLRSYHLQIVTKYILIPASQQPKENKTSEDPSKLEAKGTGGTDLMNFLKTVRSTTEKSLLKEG

Row | SMILES | IC50 [3] | also measured
1 | O=C1C[C@H](c2c[nH]c3ccc(F)cc23)C(=O)N1 [Compound 2, (−)-(R)-3-(5-fluoro-1H-indol-3-yl)pyrrolidine-2,5-dione] | – | Kynurenine concentration in plasma (average ± standard error of the mean) ([1]; 10 mg/kg oral): 122 ± 3.5 ng/mL; inhibition of circulating Kynurenine ([1]; 10 mg/kg oral): 39%; Kynurenine concentration in plasma (average ± standard error of the mean) ([1]; 30 mg/kg oral): 91.0 ± 4.4 ng/mL; inhibition of circulating Kynurenine ([1]; 30 mg/kg oral): 55%; Kynurenine concentration in plasma (average ± standard error of the mean) ([1]; 100 mg/kg oral): 64.0 ± 3.8 ng/mL; inhibition of circulating Kynurenine ([1]; 100 mg/kg oral): 68%; Mean tumor volume +/− SEM on day 55 [2]: 586.6 +/− 48.4 mm^3; TGI +/− SEM (Tumor growth inhibition) ([2]; day 55): 16.8% +/− 8.2
2 | O=C1CC(c2c[nH]c3ccccc23)C(=O)N1 (stereo not drawn) [Compound 3, 3-(1H-indol-3-yl)pyrrolidine-2,5-dione] | 3000 nM | IC50 [4]: 920 nM
3 | O=C1C[C@H](c2c[nH]c3ccccc23)C(=O)N1 [Compound 4, (−)-(R)-3-(1H-indol-3-yl)pyrrolidine-2,5-dione] | 1800 nM | IC50 [4]: 240 nM
4 | O=C1C[C@@H](c2c[nH]c3ccccc23)C(=O)N1 [Compound 4a, (+)-(S)-3-(1H-indol-3-yl)pyrrolidine-2,5-dione] | > 50000 nM | IC50 [4]: 3300 nM
5 | O=C1CC(c2c[nH]c3ccc(Cl)cc23)C(=O)N1 (stereo not drawn) [Compound 5, 3-(5-chloro-1H-indol-3-yl)pyrrolidine-2,5-dione] | 2100 nM | IC50 [4]: 590 nM
6 | O=C1C[C@H](c2c[nH]c3ccc(Cl)cc23)C(=O)N1 [Compound 6, (−)-(R)-3-(5-chloro-1H-indol-3-yl)pyrrolidine-2,5-dione] | 2200 nM | IC50 [5]: 3.4 µM
7 | O=C1C[C@@H](c2c[nH]c3ccc(Cl)cc23)C(=O)N1 [Compound 6a, (+)-(S)-3-(5-chloro-1H-indol-3-yl)pyrrolidine-2,5-dione] | > 50000 nM | –
8 | O=C1CC(c2c[nH]c3cc(Cl)c(F)cc23)C(=O)N1 (stereo not drawn) [Compound 7, 3-(6-chloro-5-fluoro-1H-indol-3-yl)pyrrolidine-2,5-dione] | 490 nM | –
9 | O=C1C[C@H](c2c[nH]c3cc(Cl)c(F)cc23)C(=O)N1 [Compound 8, (R)-3-(6-chloro-5-fluoro-1H-indol-3-yl)pyrrolidine-2,5-dione] | – | IC50 [5]: 3.6 µM
10 | O=C1CC(c2c[nH]c3cc(Br)c(F)cc23)C(=O)N1 (stereo not drawn) [Compound 9, 3-(6-bromo-5-fluoro-1H-indol-3-yl)pyrrolidine-2,5-dione] | 290 nM | IC50 [5]: 7 µM
11 | O=C1C[C@H](c2c[nH]c3cc(Br)c(F)cc23)C(=O)N1 [Compound 10, (R)-3-(6-bromo-5-fluoro-1H-indol-3-yl)pyrrolidine-2,5-dione] | 620 nM | –
12 | O=C1C[C@@H](c2c[nH]c3cc(Br)c(F)cc23)C(=O)N1 [Compound 10a, (S)-3-(6-bromo-5-fluoro-1H-indol-3-yl)pyrrolidine-2,5-dione] | 8000 nM | –
13 | O=C1CC(c2c[nH]c3ccc(Br)cc23)C(=O)N1 (stereo not drawn) [Compound 11, 3-(5-bromo-1H-indol-3-yl)pyrrolidine-2,5-dione] | 370 nM | IC50 [5]: 5.9 µM
14 | Cc1ccc2[nH]cc(C3CC(=O)NC3=O)c2c1 (stereo not drawn) [Compound 12, 3-(5-methyl-1H-indol-3-yl)pyrrolidine-2,5-dione] | 53000 nM | –
15 | COc1ccc2[nH]cc(C3CC(=O)NC3=O)c2c1 (stereo not drawn) [Compound 13, 3-(5-methoxy-1H-indol-3-yl)pyrrolidine-2,5-dione] | 53000 nM | –
16 | N#Cc1ccc2[nH]cc(C3CC(=O)NC3=O)c2c1 (stereo not drawn) [Compound 14, 3-(2,5-dioxopyrrolidin-3-yl)-1H-indole-5-carbonitrile] | 12000 nM | –
17 | O=C1CC(c2c[nH]c3cc(F)c(F)cc23)C(=O)N1 (stereo not drawn) [Compound 15, 3-(5,6-difluoro-1H-indol-3-yl)pyrrolidine-2,5-dione] | 1800 nM | IC50 [4]: 260 nM
18 | Cc1cc2[nH]cc(C3CC(=O)NC3=O)c2cc1F (stereo not drawn) [Compound 16, 3-(5-fluoro-6-methyl-1H-indol-3-yl)pyrrolidine-2,5-dione] | 46000 nM | –
19 | O=C1CC(c2c[nH]c3cc(F)ccc23)C(=O)N1 (stereo not drawn) [Compound 17, 3-(6-fluoro-1H-indol-3-yl)pyrrolidine-2,5-dione] | 3400 nM | –
20 | O=C1CC(c2c[nH]c3cc(Cl)ccc23)C(=O)N1 (stereo not drawn) [Compound 18, 3-(6-chloro-1H-indol-3-yl)pyrrolidine-2,5-dione] | 2100 nM | IC50 [4]: 500 nM
21 | O=C1CC(c2c[nH]c3cc(Br)ccc23)C(=O)N1 (stereo not drawn) [Compound 19, 3-(6-bromo-1H-indol-3-yl)pyrrolidine-2,5-dione] | 420 nM | –
22 | Cc1ccc2c(C3CC(=O)NC3=O)c[nH]c2c1 (stereo not drawn) [Compound 20, 3-(6-methyl-1H-indol-3-yl)pyrrolidine-2,5-dione] | 54000 nM | –
23 | N#Cc1ccc2c(C3CC(=O)NC3=O)c[nH]c2c1 (stereo not drawn) [Compound 22, 3-(2,5-dioxopyrrolidin-3-yl)-1H-indole-6-carbonitrile] | 1700 nM | –
24 | O=C1CC(c2cccc3ccccc23)C(=O)N1 (stereo not drawn) [Compound 23, 3-(naphthalen-1-yl)pyrrolidine-2,5-dione] | 18000 nM | –
25 | O=C1CC(c2cccc3cc(F)ccc23)C(=O)N1 (stereo not drawn) [Compound 24, 3-(6-fluoronaphthalen-1-yl)pyrrolidine-2,5-dione] | 1700 nM | –
26 | O=C1CC(c2cccc3ccc(F)cc23)C(=O)N1 (stereo not drawn) [Compound 25, 3-(7-fluoronaphthalen-1-yl)pyrrolidine-2,5-dione] | 4600 nM | –
